Values after ≈ are worked out from the molar mass of the structure shown.
Columns and labels:
Assay in all cases: ≥ marks a high value that may be exact or a test limit, other limits are often not marked, values filed in µg/mL are converted to µM
[1] = test system: Escherichia coli ATCC 10536
[2] = test system: Escherichia coli DH5alpha
[3] = test system: Staphylococcus aureus ATCC 9144
[4] = test system: Bacillus subtilis ATCC 6633
[5] = test system: Escherichia coli K91BK
[6] = test system: Bacillus subtilis var. niger ATCC 9372
[7] = test system: Bacillus anthracis Sterne 34F2
[8] = test system: Cladosporium herbarum
[9] = test system: Botrytis cinerea
[10] = test system: Pseudomonas syringae pv. tomato DC3000
[11] = test system: Pectobacterium carotovorum subsp. carotovorum DSM 30168
[12] = test system: Clavibacter michiganensis subsp. michiganensis DSM 46294
[13] = test system: Pseudomonas corrugata DSM 7228
[14] = test system: Xanthomonas vesicatoria DSM 50861
[15] = test system: Pseudomonas syringae pv. syringae DSM 10604
[16] = test system: Alternaria alternata
[17] = test system: Pseudomonas aeruginosa DSM 1128
[18] = test system: Streptococcus pneumoniae DSM 11865
[19] = test system: Escherichia coli DSM 1103
[20] = test system: Staphylococcus aureus ATCC 25923
[21] = test system: Klebsiella pneumoniae DSM 681
[22] = test system: Escherichia coli IFO 3972
[23] = test system: Staphylococcus aureus FDA 209P

CC[C@H](C)[C@H](NC(=O)[C@H](CCCN=C(N)N)NC(=O)[C@@H](NC(=O)[C@@H](NC(=O)[C@@H]1CCCN1C(=O)[C@@H](NC(=O)[C@@H](NC(=O)[C@H](C)NC(=O)[C@@H]1CCCN1C(=O)CNC(=O)[C@H](Cc1ccc(O)cc1)NC(=O)[C@H](CCCCN)NC(=O)[C@H](CCCCN)NC(=O)[C@H](Cc1c[nH]c2ccccc12)NC(=O)[C@H](C)NC(=O)[C@H](CCCN=C(N)N)NC(=O)[C@H](CC(C)C)NC(=O)[C@@H](NC(=O)[C@H](CCCCN)NC(=O)[C@H](CCCN=C(N)N)NC(=O)CNC(=O)[C@H](CC(C)C)NC(=O)[C@H](CO)NC(=O)[C@H](CCCN=C(N)N)NC(=O)[C@H](CC(C)C)NC(=O)CNC(=O)CN)[C@@H](C)CC)[C@@H](C)CC)C(C)C)[C@@H](C)CC)[C@@H](C)CC)C(N)=O [GGLRSLGRKILRAWKKYGPAIVPIIRI]
MIC [1]: 2.5 µM (≈ 7.58 µg/mL)
MIC [2]: 2.7 µM (≈ 8.19 µg/mL)
MIC [3]: 3.8 µM (≈ 11.5 µg/mL)
MIC [4]: 1.7 µM (≈ 5.15 µg/mL)

CC(=O)N[C@@H](CCCN=C(N)N)C(=O)NCC(=O)N[C@@H](CCCN=C(N)N)C(=O)NCC(=O)N[C@@H](CCCCN)C(=O)N[C@@H](CCC(N)=O)C(=O)NCC(=O)NCC(=O)N[C@@H](CCCCN)C(=O)N[C@H](C(=O)N[C@@H](CCCN=C(N)N)C(=O)N[C@@H](C)C(=O)N[C@@H](CCCCN)C(=O)N[C@@H](C)C(=O)N[C@@H](CCCCN)C(=O)N[C@H](C(=O)N[C@@H](CCCN=C(N)N)C(=O)N[C@@H](CO)C(=O)N[C@@H](CO)C(N)=O)[C@@H](C)O)C(C)C [RGRGKQGGKVRAKAKTRSS]
MIC [5]: ≥ 100 µM
MIC [6]: ≥ 100 µM
MIC [7]: ≥ 100 µM

CC(C)C[C@H](NC(=O)[C@H](C)NC(=O)[C@H](CCCCN)NC(=O)[C@@H](N)CC(C)C)C(=O)N[C@@H](CCCN=C(N)N)C(=O)N[C@@H](CCCCN)C(=O)N[C@@H](C)C(=O)N[C@@H](CC(C)C)C(=O)N[C@@H](CCCCN)C(=O)N[C@@H](Cc1cnc[nH]1)C(=O)N[C@@H](CC(C)C)C(=O)N[C@@H](C)C(N)=O [LKALRKALKHLA]
MIC [8]: 14.7 µM (≈ 20 µg/mL)
MIC [9]: ≥ 73.4 µM
MIC [10]: 1.84 µM (≈ 2.5 µg/mL)
MIC [11]: 29.4 µM (≈ 40 µg/mL)
MIC [12]: 29.4 µM (≈ 40 µg/mL)
MIC [13]: 29.4 µM (≈ 40 µg/mL)
MIC [14]: 14.7 µM (≈ 20 µg/mL)
MIC [15]: 7.34 µM (≈ 9.99 µg/mL)
MIC [16]: ≥ 73.4 µM

CC[C@H](C)[C@H](NC(=O)[C@H](CCC(N)=O)NC(=O)[C@H](CCC(=O)O)NC(=O)[C@H](CCC(=O)O)NC(=O)[C@H](CCCCN)NC(=O)[C@@H]1CCCN1C(=O)[C@H](CC(C)C)NC(=O)[C@H](C)NC(=O)[C@H](CO)NC(=O)[C@H](CC(C)C)NC(=O)[C@@H](NC(=O)[C@H](C)N)C(C)C)C(=O)NCC(=O)N[C@@H](CCCCN)C(=O)N[C@@H](C)C(=O)N[C@@H](CO)C(=O)N[C@H](C(=O)N[C@@H](CCCN=C(N)N)C(=O)NCC(=O)N[C@@H](CCCN=C(N)N)C(=O)N[C@@H](CCCCN)C(=O)N[C@@H](C)C(=O)N[C@@H](C)C(=O)N[C@@H](CCCN=C(N)N)C(=O)N[C@@H](CCCN=C(N)N)C(=O)N[C@@H](CCCCN)C(=O)N[C@@H](CCCCN)C(=O)O)[C@@H](C)O [AVLSALPKEEQIGKASTRGRKAARRKK]
MIC [17]: ≥ 102 µM
MIC [18]: ≥ 102 µM
MIC [19]: ≥ 102 µM
MIC [20]: > 102 µM
MIC [21]: ≥ 102 µM

NCCCC[C@H](NC(=O)[C@H](CCCN=C(N)N)NC(=O)[C@H](CCCN=C(N)N)NC(=O)[C@H](CCCN=C(N)N)NC(=O)[C@@H]1CCCN1)C(=O)O [PRRRK]
MIC [22]: ≥ 500 µM
MIC [23]: ≥ 500 µM

— DBAASP
